Reference: US20050245399A1, “Pyrazole derivatives as herbicidal compositions containing them” (ISHIHARA SANGYO KAISHA, LTD., priority 2004, published 2005)

What was measured:
Type in all cases: in vivo
[1] = tested on: barnyardgrass (Echinochloa crus-galli L.): ECHCG; assay: Test Example 1 pre-emergence herbicidal activity, ECHCG; settings: Rate 63 g a.i./ha, visually observed 20th to 23rd day after application
Procedure, shortened: (§1)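 Pre-emergence soil spray: wettable powder or emulsifiable concentrate diluted in water (500 L/ha) applied one day after sowing in upland field soil. Visual growth-control rating (%) on days 20–23, 0 = untreated control, 100 = complete kill.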

[2] = tested on: crabgrass (Digitaria sanguinalis L.): DIGSA; assay: Test Example 1 pre-emergence herbicidal activity, DIGSA; settings: Rate 63 g a.i./ha, visually observed 20th to 23rd day after application
Procedure, shortened: as §1

[3] = tested on: green foxtail (Setaria viridis L.): SETVI; assay: Test Example 1 pre-emergence herbicidal activity, SETVI; settings: Rate 63 g a.i./ha, visually observed 20th to 23rd day after application
Procedure, shortened: as §1

[4] = tested on: redroot pigweed (Amaranthus retroflexus L.): AMARE; assay: Test Example 1 pre-emergence herbicidal activity, AMARE; settings: Rate 63 g a.i./ha, visually observed 20th to 23rd day after application
Procedure, shortened: as §1

[5] = tested on: prickly sida (Sida spinosa L.): SEDSP; assay: Test Example 1 pre-emergence herbicidal activity, SIDSP; settings: Rate 63 g a.i./ha, visually observed 20th to 23rd day after application
Procedure, shortened: as §1

[6] = tested on: velvetleaf (Abutilon theophrasti): ABUTH; assay: Test Example 1 pre-emergence herbicidal activity, ABUTH; settings: Rate 63 g a.i./ha, visually observed 20th to 23rd day after application
Procedure, shortened: as §1

[7] = tested on: rice (Oryza sativa L.): ORYSA; assay: Test Example 1 pre-emergence herbicidal activity, ORYSA; settings: Rate 63 g a.i./ha, visually observed 20th to 23rd day after application
Procedure, shortened: as §1

[8] = tested on: wheat (Triticum aestivum L.): TRZAX; assay: Test Example 1 pre-emergence herbicidal activity, TRZAX; settings: Rate 63 g a.i./ha, visually observed 20th to 23rd day after application
Procedure, shortened: as §1

[9] = tested on: corn (Zea mays L.): ZEAMX; assay: Test Example 1 pre-emergence herbicidal activity, ZEAMX; settings: Rate 63 g a.i./ha, visually observed 20th to 23rd day after application
Procedure, shortened: as §1

[10] = tested on: soybean (Glycine max Merr.): GLXMA; assay: Test Example 1 pre-emergence herbicidal activity, GLXMA; settings: Rate 63 g a.i./ha, visually observed 20th to 23rd day after application
Procedure, shortened: as §1

[11] = tested on: barnyardgrass (Echinochloa crus-galli L.), ECHCG; assay: Test Example 2 post-emergence (foliage treatment) herbicidal activity, ECHCG; settings: 63 g a.i./ha
Procedure, shortened: (§2)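 Visual growth-control score (0 = untreated, 100 = complete kill) taken 20th-23rd day after a foliar spray. Seedlings were grown in upland field soil and treated at leaf stage: barnyardgrass 1.1-2.1, crabgrass 1.0-2.0, redroot pigweed 0.1-1.5, rice 1.0-2. Spray volume was 500 L/ha water with 0.1% (v/v) agricultural spreader.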

[12] = tested on: crabgrass (Digitaria sanguinalis L.), DIGSA; assay: Test Example 2 post-emergence (foliage treatment) herbicidal activity, DIGSA; settings: 63 g a.i./ha
Procedure, shortened: as §2

[13] = tested on: green foxtail (Setaria viridis L.), SETVI; assay: Test Example 2 post-emergence (foliage treatment) herbicidal activity, SETVI; settings: 63 g a.i./ha
Procedure, shortened: (§3)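 Each species was evaluated for growth suppression by eye, 0% matching untreated and 100% meaning death, some 20 to 23 days after a single post-emergence foliar treatment applied in 500 L/ha of water carrying 0.1% (v/v) agricultural spreader.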

[14] = tested on: redroot pigweed (Amaranthus retroflexus L.), AMARE; assay: Test Example 2 post-emergence (foliage treatment) herbicidal activity, AMARE; settings: 63 g a.i./ha
Procedure, shortened: as §2

[15] = tested on: prickly sida (Sida spinosa L.), SIDSP; assay: Test Example 2 post-emergence (foliage treatment) herbicidal activity, SIDSP; settings: 63 g a.i./ha
Procedure, shortened: as §3

[16] = tested on: velvetleaf (Abutilon theophrasti), ABUTH; assay: Test Example 2 post-emergence (foliage treatment) herbicidal activity, ABUTH; settings: 63 g a.i./ha
Procedure, shortened: as §3

[17] = tested on: rice (Oryza sativa L.), ORYSA; assay: Test Example 2 post-emergence (foliage treatment) herbicidal activity, ORYSA; settings: 63 g a.i./ha
Procedure, shortened: as §2

[18] = tested on: wheat (Triticum aestivum L.), TRZAX; assay: Test Example 2 post-emergence (foliage treatment) herbicidal activity, TRZAX; settings: 63 g a.i./ha
Procedure, shortened: as §3

[19] = tested on: corn (Zea mays L.), ZEAMX; assay: Test Example 2 post-emergence (foliage treatment) herbicidal activity, ZEAMX; settings: 63 g a.i./ha
Procedure, shortened: as §3

[20] = tested on: soybean (Glycine max Merr.), GLXMA; assay: Test Example 2 post-emergence (foliage treatment) herbicidal activity, GLXMA; settings: 63 g a.i./ha
Procedure, shortened: as §3

[21] = tested on: barnyardgrass (Echinochiloa oryzicola: ECHOR); assay: Test Example 3 water application herbicidal activity (paddy), ECHOR; settings: 63 g a.i./ha, water application under submerged condition at 0.5 leaf stage, visually observed 14th day after application; 0 = untreated control, 100 = complete kill
Procedure, shortened: (§4)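 Compound, as diluted wettable powder or emulsifiable concentrate, was pipetted into flood water at a set active-ingredient dose. Weeds were treated at 0.5-leaf stage after sowing or tuber planting; 2-leaf rice 4 days post-transplant. Control scored visually, 0 untreated to 100 complete kill, weeds day 14, rice day 21.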

[22] = tested on: japanese bulrush (Scirpus juncoides: SCPJO); assay: Test Example 3 water application herbicidal activity (paddy), SCPJO; settings: 63 g a.i./ha, water application under submerged condition at 0.5 leaf stage, visually observed 14th day after application; 0 = untreated control, 100 = complete kill
Procedure, shortened: as §4

[23] = tested on: japanese ribbon wapato (Sagittaria pygmaea: SA GPY); assay: Test Example 3 water application herbicidal activity (paddy), SAGPY; settings: 63 g a.i./ha, water application under submerged condition, tubers planted, visually observed 14th day after application; 0 = untreated control, 100 = complete kill
Procedure, shortened: as §4

[24] = tested on: rice (Oryza sativa L.: ORYSA); assay: Test Example 3 water application herbicidal activity (paddy), transplanted rice ORYSA; settings: 63 g a.i./ha, water application 4th day after transplantation of 2 leaf stage rice, visually observed 21st day after application; 0 = untreated control, 100 = complete kill
Procedure, shortened: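 Flooded paddy-soil pots in greenhouse; ECHOR and SCPJO sown, SAGPY tubers planted a day later, compound applied into 3–4 cm water at weeds' 0.5-leaf stage. Rice transplanted at 2-leaf stage, treated day 4 after transplanting. Visual growth control 0–100% at 14 days (weeds) and 21 days (rice) after application.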

## C#CCN(C=O)c1c(OC(F)F)c(Cl)cc(F)c1-c1nn(C)c(OC(F)F)c1Cl [Compound 1-85]
[1]
  Pre-emergence Herbicidal Activity ECHCG (growth controlling degree): 60%
[2]
  Pre-emergence Herbicidal Activity DIGSP (growth controlling degree): 100%
[3]
  Pre-emergence Herbicidal Activity SETVI (growth controlling degree): 70%
[4]
  Pre-emergence Herbicidal Activity AMARE (growth controlling degree): 100%
[5]
  Pre-emergence Herbicidal Activity SIDSP (growth controlling degree): 70%
[6]
  Pre-emergence Herbicidal Activity ABUTH (growth controlling degree): 30%
[7]
  Pre-emergence Herbicidal Activity ORYSA (growth controlling degree): 10%
[8]
  Pre-emergence Herbicidal Activity TRZAX (growth controlling degree): 0%
[9]
  Pre-emergence Herbicidal Activity ZEAMX (growth controlling degree): 10%
[10]
  Pre-emergence Herbicidal Activity GLXMA (growth controlling degree): 0%
[11]
  growth controlling degree, ECHCO: 80%
[12]
  growth controlling degree, DIGSP: 80%
[13]
  growth controlling degree, SETVI: 100%
[14]
  growth controlling degree, AMARE: 100%
[15]
  growth controlling degree, SIDSP: 95%
[16]
  growth controlling degree, ABUTH: 100%
[17]
  growth controlling degree, ORYSA: 60%
[18]
  growth controlling degree, TRZAX: 40%
[19]
  growth controlling degree, ZEAMX: 40%
[20]
  growth controlling degree, GLXMA: 60%
[21]
  growth controlling degrees (%) ECHOR: 100%
[22]
  growth controlling degrees (%) SCPJO: 60%
[23]
  growth controlling degrees (%) SAGPY: 70%
[24]
  growth controlling degrees (%) ORYSA: 70%

## C#CCNc1c(OC(F)F)c(Cl)cc(F)c1-c1nn(C)c(OC(F)F)c1Cl [Compound 1-87]
[1]
  Pre-emergence Herbicidal Activity ECHCG (growth controlling degree): 100%
[2]
  Pre-emergence Herbicidal Activity DIGSP (growth controlling degree): 100%
[3]
  Pre-emergence Herbicidal Activity SETVI (growth controlling degree): 100%
[4]
  Pre-emergence Herbicidal Activity AMARE (growth controlling degree): 100%
[5]
  Pre-emergence Herbicidal Activity SIDSP (growth controlling degree): 98%
[6]
  Pre-emergence Herbicidal Activity ABUTH (growth controlling degree): 80%
[7]
  Pre-emergence Herbicidal Activity ORYSA (growth controlling degree): 60%
[8]
  Pre-emergence Herbicidal Activity TRZAX (growth controlling degree): 10%
[9]
  Pre-emergence Herbicidal Activity ZEAMX (growth controlling degree): 0%
[10]
  Pre-emergence Herbicidal Activity GLXMA (growth controlling degree): 40%
[11]
  growth controlling degree, ECHCO: 100%
[12]
  growth controlling degree, DIGSP: 100%
[13]
  growth controlling degree, SETVI: 100%
[14]
  growth controlling degree, AMARE: 100%
[15]
  growth controlling degree, SIDSP: 100%
[16]
  growth controlling degree, ABUTH: 100%
[17]
  growth controlling degree, ORYSA: 70%
[18]
  growth controlling degree, TRZAX: 50%
[19]
  growth controlling degree, ZEAMX: 100%
[20]
  growth controlling degree, GLXMA: 95%
[21]
  growth controlling degrees (%) ECHOR: 100%
[22]
  growth controlling degrees (%) SCPJO: 100%
[23]
  growth controlling degrees (%) SAGPY: 100%
[24]
  growth controlling degrees (%) ORYSA: 70%
